Structures are written as SMILES.

Experiment [1] addresses T1, recombinant human ALK5 (TGF-βR1) protein (Homo sapiens, UniProt P36897).
T1 construct: purchased Life Technologies PR9075A
T1 sequence (P36897 34-503): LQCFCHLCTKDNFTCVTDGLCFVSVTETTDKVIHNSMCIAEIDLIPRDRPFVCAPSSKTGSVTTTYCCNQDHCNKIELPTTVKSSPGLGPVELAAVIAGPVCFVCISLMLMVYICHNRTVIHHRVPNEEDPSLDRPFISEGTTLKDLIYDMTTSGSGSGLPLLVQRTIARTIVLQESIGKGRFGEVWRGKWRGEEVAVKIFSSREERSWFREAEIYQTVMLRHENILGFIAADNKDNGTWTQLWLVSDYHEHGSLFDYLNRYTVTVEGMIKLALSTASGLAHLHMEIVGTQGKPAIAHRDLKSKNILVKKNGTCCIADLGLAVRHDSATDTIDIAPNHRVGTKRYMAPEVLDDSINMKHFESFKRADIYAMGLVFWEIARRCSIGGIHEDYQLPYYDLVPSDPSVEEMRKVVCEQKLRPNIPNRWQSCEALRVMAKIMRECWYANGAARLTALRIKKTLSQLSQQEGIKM
As to the kind of experiment: Biochemical ALK5 (TGF-βR1) assay to measure pKi (LANCE Ultra ULight kinase assay). The note with it: apparent pKi, converted from pIC50 using the Cheng-Prusoff equation. The procedure, abridged: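 TR-FRET kinase format: compound dose range 10 μM–25 pM equilibrated 60 min with human ALK5 and ULight-labelled topoisomerase 2α peptide in HEPES/MgCl2 buffer pH 7.5 with DTT. Reaction started with ATP (125 μM stock, 5× final), 60 min at 37° C, stopped with EDTA/Eu-anti-phospho antibody; pKi derived from pIC50 via Cheng-Prusoff.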

The subject of experiment [2] is TGF-β-stimulated SMAD3 phosphorylation in BEAS-2B cells. Kind of experiment: Cellular ALK5 potency assay, inhibition of TGF-β stimulated pSMAD3 formation in BEAS-2B cells. The note with it: Homo sapiens, inhibition of TGF-β (10 ng/mL) stimulated pSMAD3 formation, 1 hour compound incubation, read-out: BEAS2B pIC50 (converted). It is filed as cell-based. The procedure, abridged: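 Phospho-SMAD3 was quantified by AlphaLISA in lysates of human lung epithelial BEAS-2B cells. Compound was added 1 h (37 °C, HEPES/BSA-supplemented HBSS) before a 30 min challenge with 10 ng/mL TGF-β. Values are pIC50 relative to stimulated cells without compound.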

Turning to `Fc1ccc(Cl)cc1-c1n[nH]cc1-c1ccc2ncc(N3CC4CNC4C3)cc2n1` (stereo not drawn) [Compound 1-64, 2-[3-(5-chloro-2-fluoro-phenyl)-1H-pyrazol-4-yl]-7-(3,6-diazabicyclo[3.2.0]heptan-3-yl)-1,5-naphthyridine], in experiment [1], the Ki is 0.0398 to 0.316 nM. The IC50 in experiment [2] is at most 20 nM.

As to `COC(=O)[C@H]1CN(c2cnc3ccc(-c4c[nH]nc4-c4cc(Cl)ccc4F)nc3c2)CCN1C` [Compound 1-65, methyl (2R)-4-[6-[3-(5-chloro-2-fluoro-phenyl)-1H-pyrazol-4-yl]-1,5-naphthyridin-3-yl]-1-methyl-piperazine-2-carboxylate], the Ki in experiment [1] was 0.398 to 3.16 nM. For the same compound, the IC50 in experiment [2] is 25.1 to 158 nM.

Turning to `CC(C)NC(=O)[C@H]1CN(c2cnc3ccc(-c4c[nH]nc4-c4cc(Cl)ccc4F)nc3c2)CCN1` [Compound 1-66, (R)-4-(6-(3-(5-Chloro-2-fluorophenyl)-1H-pyrazol-4-yl)-1,5-naphthyridin-3-yl)-N-isopropylpiperazine-2-carboxamide], in experiment [1], the Ki is 0.398 to 3.16 nM. The IC50 in experiment [2] was 25.1 to 158 nM.

Turning to `O=C(NCc1ccccc1)[C@H]1CN(c2cnc3ccc(-c4c[nH]nc4-c4cc(Cl)ccc4F)nc3c2)CCN1` [Compound 1-67, (2R)-N-benzyl-4-[6-[3-(5-chloro-2-fluoro-phenyl)-1H-pyrazol-4-yl]-1,5-naphthyridin-3-yl]piperazine-2-carboxamide], the Ki in experiment [1] is 0.398 to 3.16 nM. For the same compound, the IC50 in experiment [2] is 25.1 to 158 nM.

As to `CC(C)OC(=O)[C@H]1CN(c2cnc3ccc(-c4c[nH]nc4-c4cc(Cl)ccc4F)nc3c2)CCN1` [Compound 1-68, isopropyl (2R)-4-[6-[3-(5-chloro-2-fluoro-phenyl)-1H-pyrazol-4-yl]-1,5-naphthyridin-3-yl]piperazine-2-carboxylate], the Ki in experiment [1] is 0.398 to 3.16 nM. Also, the IC50 in experiment [2] was 25.1 to 158 nM.

With `CC(C)N1CC2CN(c3cnc4ccc(-c5c[nH]nc5-c5cc(Cl)ccc5F)nc4c3)CC21` (stereo not drawn) [Compound 1-70, 2-(3-(5-chloro-2-fluorophenyl)-112-pyrazol-4-yl)-7-(6-isopropyl-3,6-diazabicyclo[3.2.0]heptan-3-yl)-1,5-naphthyridine], the Ki in experiment [1] is 0.0398 to 0.316 nM. In addition, the IC50 in experiment [2] was 25.1 to 158 nM.

On to `CN(C)CCN1CCN(c2cnc3ccc(-c4c[nH]nc4-c4cc(Cl)ccc4F)nc3c2)CC1` [Compound 1-71, 2-[4-[6-[3-(5-chloro-2-fluoro-phenyl)-1H-pyrazol-4-yl]-1,5-naphthyridin-3-yl]piperazin-1-yl]-N,N-dimethyl-ethanamine], for which the Ki in experiment [1] is at most 0.0316 nM. Further, in experiment [2], the IC50 was at most 20 nM.

On to `CN1CC2CN(c3cnc4ccc(-c5c[nH]nc5-c5cc(Cl)ccc5F)nc4c3)C2C1` (stereo not drawn) [Compound 1-72, 2-[3-(5-chloro-2-fluoro-phenyl)-1H-pyrazol-4-yl]-7-(3-methyl-3,6-diazabicyclo[3.2.0]heptan-6-yl)-1,5-naphthyridine], for which the Ki in experiment [1] was 0.398 to 3.16 nM. For the same compound, the IC50 in experiment [2] is 25.1 to 158 nM.

On to `CC(C)N1CC2CN(c3cnc4ccc(-c5c[nH]nc5-c5cc(Cl)ccc5F)nc4c3)C2C1` (stereo not drawn) [Compound 1-73, 2-[3-(5-chloro-2-fluoro-phenyl)-1H-pyrazol-4-yl]-7-(3-isopropyl-3,6-diazabicyclo[3.2.0]heptan-6-yl)-1,5-naphthyridine], for which the Ki in experiment [1] was 3.98 to 31.6 nM. The IC50 in experiment [2] was 25.1 to 158 nM.

For the compound `CN1CC2CN(c3cnc4ccc(-c5c[nH]nc5-c5cc(Cl)ccc5F)nc4c3)CC21` (stereo not drawn) [Compound 1-74, 2-[3-(5-chloro-2-fluoro-phenyl)-1H-pyrazol-4-yl]-7-(6-methyl-3,6-diazabicyclo[3.2.0]heptan-3-yl)-1,5-naphthyridine], the Ki in experiment [1] was 0.398 to 3.16 nM. In experiment [2], the IC50 is 25.1 to 158 nM.

Consider `CC(C)NCCN1CCN(c2cnc3ccc(-c4c[nH]nc4-c4cc(Cl)ccc4F)nc3c2)CC1` [Compound 1-76, N-[2-[4-[6-[3-(5-chloro-2-fluoro-phenyl)-1H-pyrazol-4-yl]-1,5-naphthyridin-3-yl]piperazin-1-yl]ethyl]propan-2-amine], for which, in experiment [1], the Ki is at most 0.0316 nM. In experiment [2], the IC50 was 25.1 to 158 nM.

On to `CN1CCN(C2CCN(c3cnc4ccc(-c5c[nH]nc5-c5cc(Cl)ccc5F)nc4c3)CC2)CC1` [Compound 1-83, 2-[3-(5-chloro-2-fluoro-phenyl)-1H-pyrazol-4-yl]-7-[4-(4-methylpiperazin-1-yl)-1-piperidyl]-1,5-naphthyridine], for which the Ki in experiment [1] was at most 0.0316 nM. Besides, the IC50 in experiment [2] was at most 20 nM.

Consider `Fc1ccc(Cl)cc1-c1n[nH]cc1-c1ccc2ncc(N3CCn4nc(C5=CCNC5)nc4C3)cc2n1` [Compound 1-85, 2-(3-(5-chloro-2-fluorophenyl)-1H-pyrazol-4-yl)-7-(2-(2,5-dihydro-1H-pyrrol-3-yl)-5,6-dihydro-[1,2,4]triazolo[1,5-a]pyrazin-7(8H)-yl)-1,5-naphthyridine], for which, in experiment [1], the Ki is at most 0.0316 nM. In addition, the IC50 in experiment [2] was 25.1 to 158 nM.

Turning to `CN1CC=C(c2nc3n(n2)CCN(c2cnc4ccc(-c5c[nH]nc5-c5cc(Cl)ccc5F)nc4c2)C3)C1` [Compound 1-86, 2-(3-(5-chloro-2-fluorophenyl)-1H-pyrazol-4-yl)-7-(2-(1-methyl-2,5-dihydro-1H-pyrrol-3-yl)-5,6-dihydro-[1,2,4]triazolo[1,5-a]pyrazin-7(8H)-yl)-1,5-naphthyridine], the Ki in experiment [1] is at most 0.0316 nM. For the same compound, in experiment [2], the IC50 is 25.1 to 158 nM.

In the case of `CNCCn1cc(-c2cnc3ccc(-c4c[nH]nc4-c4cc(Cl)ccc4F)nc3c2)cn1` [Compound 1-87, 2-(4-(6-(3-(5-chloro-2-fluorophenyl)-1H-pyrazol-4-yl)-1,5-naphthyridin-3-yl)-1H-pyrazol-1-yl)-N-methylethan-1-amine], the Ki in experiment [1] was at most 0.0316 nM. Moreover, the IC50 in experiment [2] was at most 20 nM.

Turning to `Fc1ccc(Cl)cc1-c1n[nH]cc1-c1ccc2ncc(-c3cnn(CC4CNC4)c3)cc2n1` [Compound 1-88, 7-[1-(azetidin-3-ylmethyl)pyrazol-4-yl]-2-[3-(5-chloro-2-fluoro-phenyl)-1H-pyrazol-4-yl]-1,5-naphthyridine], the Ki in experiment [1] was 0.0398 to 0.316 nM. Further, the IC50 in experiment [2] is 25.1 to 158 nM.

Consider `NCCn1cc(-c2cnc3ccc(-c4c[nH]nc4-c4cc(Cl)ccc4F)nc3c2)cn1` [Compound 1-89, 2-[4-[6-[3-(5-chloro-2-fluoro-phenyl)-1H-pyrazol-4-yl]-1,5-naphthyridin-3-yl]pyrazol-1-yl]ethanamine], for which the Ki in experiment [1] was at most 0.0316 nM. Also, in experiment [2], the IC50 is 25.1 to 158 nM.

In the case of `Cn1cccc(-c2cnc3ccc(-c4c[nH]nc4-c4cc(Cl)ccc4F)nc3c2)c1=O` [Compound 1-90, 3-(6-(3-(5-chloro-2-fluorophenyl)-112-pyrazol-4-yl)-1,5-naphthyridin-3-yl)-1-methylpyridin-2(1H)-one], in experiment [1], the Ki is 0.0398 to 0.316 nM. Also, the IC50 in experiment [2] is at most 20 nM.

On to `NC1CC=C(c2cnc3ccc(-c4c[nH]nc4-c4cc(Cl)ccc4F)nc3c2)CC1` (stereo not drawn) [Compound 1-91, 4-(6-(3-(5-chloro-2-fluorophenyl)-1H-pyrazol-4-yl)-1,5-naphthyridin-3-yl)cyclohex-3-en-1-amine], for which the Ki in experiment [1] was 0.0398 to 0.316 nM. In addition, the IC50 in experiment [2] was at most 20 nM.

`CNCCn1ccc(-c2cnc3ccc(-c4c[nH]nc4-c4cc(Cl)ccc4F)nc3c2)n1` [Compound 1-92, 2-[3-[6-[3-(5-chloro-2-fluoro-phenyl)-1H-pyrazol-4-yl]-1,5-naphthyridin-3-yl]pyrazol-1-yl]-N-methyl-ethanamine]: the Ki in experiment [1] is 0.0398 to 0.316 nM. In addition, in experiment [2], the IC50 was at most 20 nM.

Take `Fc1ccc(Cl)cc1-c1n[nH]cc1-c1ccc2ncc(C3=CCNC3)cc2n1` [Compound 1-93, 2-[3-(5-chloro-2-fluoro-phenyl)-1H-pyrazol-4-yl]-7-(2,5-dihydro-1H-pyrrol-3-yl)-1,5-naphthyridine]: in experiment [1], the Ki was 0.0398 to 0.316 nM. In experiment [2], the IC50 is at most 20 nM.

With `CC(C)NCCn1cc(-c2cnc3ccc(-c4c[nH]nc4-c4cc(Cl)ccc4F)nc3c2)cn1` [Compound 1-94, N-(2-(4-(6-(3-(5-chloro-2-fluorophenyl)-1H-pyrazol-4-yl)-1,5-naphthyridin-3-yl)-1H-pyrazol-1-yl)ethyl)propan-2-amine], the Ki in experiment [1] is at most 0.0316 nM. Besides, the IC50 in experiment [2] is 25.1 to 158 nM.

`Fc1ccc(Cl)cc1-c1n[nH]cc1-c1ccc2ncc(-c3cnn(CCNCc4ccccc4)c3)cc2n1` [Compound 1-95, N-benzyl-2-[4-[6-[3-(5-chloro-2-fluoro-phenyl)-1H-pyrazol-4-yl]-1,5-naphthyridin-3-yl]pyrazol-1-yl]ethanamine]: the Ki in experiment [1] was 0.0398 to 0.316 nM. Further, in experiment [2], the IC50 was 25.1 to 158 nM.

In the case of `CN(C)C1CC=C(c2cnc3ccc(-c4c[nH]nc4-c4cc(Cl)ccc4F)nc3c2)CC1` (stereo not drawn) [Compound 1-96, 4-(6-(3-(5-chloro-2-fluorophenyl)-1H-pyrazol-4-yl)-1,5-naphthyridin-3-yl)-N,N-dimethylcyclohex-3-en-1-amine], the Ki in experiment [1] is at most 0.0316 nM. The IC50 in experiment [2] is at most 20 nM.

The record behind these values is US11730720B2, “ALK5 inhibitors” (THERAVANCE BIOPHARMA R&D IP, LLC, priority 2018, dated 2023).
